In ChEMBL document CHEMBL3885881, “DrugMatrix”:

Species: Rattus norvegicus
Assay: DrugMatrix - Regimen: Daily Repeat
Assay type: toxicity, organism-based, Sprague-Dawley
Set-up: regimen Daily Repeat, gender Male, age 6-8 weeks
Conditions: in vivo, po, route oral GAVAGE, […]; for ABSOLUTE BASOPHIL / ABSOLUTE EOSINOPHIL / ABSOLUTE LYMPHOCYTE / ABSOLUTE MONOCYTE / ABSOLUTE SEGMENTED NEUTROPHIL / BASOPHIL / EOSINOPHIL / ERYTHROCYTE COUNT / HEMATOCRIT / HEMOGLOBIN / LEUKOCYTE COUNT / LYMPHOCYTE / MEAN CORPUSCULAR HEMOGLOBIN / MEAN CORPUSCULAR HEMOGLOBIN CONCENTRATION / MEAN CORPUSCULAR VOLUME / MONOCYTE / NEUTROPHIL / NUCLEATED RED BLOOD CELLS / PLATELET COUNT: tissue Blood
[1] = 0 mg/kg, 72 h, dose level Control, time 3 day
[2] = 0 mg/kg, 72 h, tissue Plasma, dose level Control, time 3 day
[3] = 0 mg/kg, 120 h, dose level Control, time 5 day
[4] = 0 mg/kg, 120 h, tissue Plasma, dose level Control, time 5 day
[5] = 0.3 mg/kg, 72 h, dose level Low, time 3 day
[6] = 0.3 mg/kg, 72 h, tissue Plasma, dose level Low, time 3 day

**Q.** Which results are given for `C[C@]12CC[C@@H]3c4ccc(O)cc4CC[C@H]3[C@@H]1CC[C@@H]2O` [ESTRADIOL]?
**A.** ABSOLUTE BASOPHIL [1]: 0 CELLS/uL; ABSOLUTE EOSINOPHIL [1]: 41.83 CELLS/uL; ABSOLUTE LYMPHOCYTE [1]: 8545.5 CELLS/uL; ABSOLUTE MONOCYTE [1]: 240 CELLS/uL; ABSOLUTE SEGMENTED NEUTROPHIL [1]: 906 CELLS/uL; BASOPHIL [1]: 0%; EOSINOPHIL [1]: 0.33%; ERYTHROCYTE COUNT [1]: 5.6 x10E6/uL; HEMATOCRIT [1]: 35.4%; HEMOGLOBIN [1]: 13.42 G/DL; LEUKOCYTE COUNT [1]: 9.73 x10E3/uL; LYMPHOCYTE [1]: 87.83%; MEAN CORPUSCULAR HEMOGLOBIN [1]: 23.98 pg; MEAN CORPUSCULAR HEMOGLOBIN CONCENTRATION [1]: 37.92 G/DL; MEAN CORPUSCULAR VOLUME [1]: 63.3 fL; MONOCYTE [1]: 2.5%; NEUTROPHIL [1]: 9.33%; NUCLEATED RED BLOOD CELLS [1]: 0 /100WBC; PLATELET COUNT [1]: 1032 x10E3/uL; ALANINE AMINOTRANSFERASE [2]: 72.83 u/L; ALBUMIN [2]: 4 G/DL; ALKALINE PHOSPHATASE [2]: 322.83 u/L; ASPARTATE AMINOTRANSFERASE [2]: 102.67 u/L; BLOOD UREA NITROGEN [2]: 12 mg/dL; CARBON DIOXIDE [2]: 34.33 mmol/L; CHLORIDE [2]: 97.67 MEQ/L; CHOLESTEROL [2]: 82.5 mg/dL; CREATINE PHOSPHOKINASE [2]: 410.33 u/L; CREATININE [2]: 0.18 mg/dL; GLUCOSE [2]: 164.5 mg/dL; LACTATE DEHYDROGENASE [2]: 119.5 u/L; LIPASE [2]: 11.83 u/L; PHOSPHORUS [2]: 9.52 mg/dL; POTASSIUM [2]: 5.56 MEQ/L; SODIUM [2]: 142.48 MEQ/L; TOTAL BILIRUBIN [2]: 0.18 mg/dL; TOTAL PROTEIN [2]: 5.77 G/DL; URIC ACID [2]: 0.48 mg/dL; ABSOLUTE BASOPHIL [3]: 0 CELLS/uL; ABSOLUTE EOSINOPHIL [3]: 0 CELLS/uL; ABSOLUTE LYMPHOCYTE [3]: 9065 CELLS/uL; ABSOLUTE MONOCYTE [3]: 341.33 CELLS/uL; ABSOLUTE SEGMENTED NEUTROPHIL [3]: 527 CELLS/uL; BASOPHIL [3]: 0%; EOSINOPHIL [3]: 0%; ERYTHROCYTE COUNT [3]: 5.25 x10E6/uL; HEMATOCRIT [3]: 34.08%; HEMOGLOBIN [3]: 13.5 G/DL; LEUKOCYTE COUNT [3]: 9.93 x10E3/uL; LYMPHOCYTE [3]: 91.17%; MEAN CORPUSCULAR HEMOGLOBIN [3]: 25.7 pg; MEAN CORPUSCULAR HEMOGLOBIN CONCENTRATION [3]: 39.62 G/DL; MEAN CORPUSCULAR VOLUME [3]: 64.93 fL; MONOCYTE [3]: 3.33%; NEUTROPHIL [3]: 5.5%; NUCLEATED RED BLOOD CELLS [3]: 0 /100WBC; PLATELET COUNT [3]: 1077.5 x10E3/uL; ALANINE AMINOTRANSFERASE [4]: 57.83 u/L; ALKALINE PHOSPHATASE [4]: 319.17 u/L; ASPARTATE AMINOTRANSFERASE [4]: 83.33 u/L; BLOOD UREA NITROGEN [4]: 13.67 mg/dL; CARBON DIOXIDE [4]: 30.83 mmol/L; CHLORIDE [4]: 98.33 MEQ/L; CHOLESTEROL [4]: 64.83 mg/dL; CREATINE PHOSPHOKINASE [4]: 263.67 u/L; CREATININE [4]: 0.2 mg/dL; GLUCOSE [4]: 182.83 mg/dL; LACTATE DEHYDROGENASE [4]: 124 u/L; LIPASE [4]: 10.5 u/L; PHOSPHORUS [4]: 10 mg/dL; POTASSIUM [4]: 5.78 MEQ/L; SODIUM [4]: 142.48 MEQ/L; TOTAL BILIRUBIN [4]: 0.2 mg/dL; TOTAL PROTEIN [4]: 6 G/DL; URIC ACID [4]: 0.7 mg/dL; ABSOLUTE BASOPHIL [5]: 0 CELLS/uL; ABSOLUTE EOSINOPHIL [5]: 0 CELLS/uL; ABSOLUTE LYMPHOCYTE [5]: 8342 CELLS/uL; ABSOLUTE MONOCYTE [5]: 154.33 CELLS/uL; ABSOLUTE SEGMENTED NEUTROPHIL [5]: 637 CELLS/uL; BASOPHIL [5]: 0%; EOSINOPHIL [5]: 0%; ERYTHROCYTE COUNT [5]: 5.44 x10E6/uL; HEMATOCRIT [5]: 33.83%; HEMOGLOBIN [5]: 13.07 G/DL; LEUKOCYTE COUNT [5]: 9.13 x10E3/uL; LYMPHOCYTE [5]: 91.67%; MEAN CORPUSCULAR HEMOGLOBIN [5]: 24.07 pg; MEAN CORPUSCULAR HEMOGLOBIN CONCENTRATION [5]: 38.63 G/DL; MEAN CORPUSCULAR VOLUME [5]: 62.23 fL; MONOCYTE [5]: 1.67%; NEUTROPHIL [5]: 6.67%; NUCLEATED RED BLOOD CELLS [5]: 0 /100WBC; PLATELET COUNT [5]: 824 x10E3/uL; ALANINE AMINOTRANSFERASE [6]: 57.33 u/L; ALKALINE PHOSPHATASE [6]: 430 u/L; ASPARTATE AMINOTRANSFERASE [6]: 82.67 u/L; BLOOD UREA NITROGEN [6]: 13.67 mg/dL; CARBON DIOXIDE [6]: 34 mmol/L; CHLORIDE [6]: 97.67 MEQ/L; CHOLESTEROL [6]: 68 mg/dL; CREATINE PHOSPHOKINASE [6]: 290.33 u/L; CREATININE [6]: 0.16 mg/dL; GLUCOSE [6]: 175 mg/dL; LACTATE DEHYDROGENASE [6]: 124 u/L; LIPASE [6]: 11 u/L; PHOSPHORUS [6]: 9.93 mg/dL; POTASSIUM [6]: 5.76 MEQ/L; SODIUM [6]: 142.13 MEQ/L; TOTAL BILIRUBIN [6]: 0.23 mg/dL; URIC ACID [6]: 0.37 mg/dL
